The subject of one data set is SREBP. The data set is described as follows: Reporter Screening Assay (SRE-luciferase reporter, HepG2). Type of data set: cell-based. The following applies: Homo sapiens; SRE-luciferase reporter HepG2 cells, 24 hours, 0.01 uM to 10 uM; read-out: I: Reporter Screening Assay (Ave EC50 (nM)). The protocol: Reporter Screening Assay: This assay was used to evaluate the effect on transcriptional activity SREBP of selected compounds using an SRE-luciferase reporter construct. On day 1, 10,000 cells were seeded in a 96 well (white) plate as per the plate map in Growth media without antibiotics. Cells were incubated at 37° C. for 8 hours. After 8 hours, cells were washed with DPBS for complete removal of FBS. DPBS was completely removed and Growth media was replaced with phenol free treatment medium (90 μl) with different FBS concentrations. The cells were then incubated at 37° C. for 24 hours with varying doses (0.01 uM to 10 uM) of compounds. Then a Luciferase assay was performed.
Reagents for performing Luciferase assay were stored at −20° C. To a tube of lyophilized assay substrate was added 1 mL Substrate Solvent and mixed well. The Substrate tube after reconstitution was covered with aluminum foil so as to keep it protected from light. The assay buffer was thawed to room temperature. To 20 mL Assay Buffer was added 200 μL of reconstituted 100× Substrate and mixed well. The reconstituted substrate as well as the assay solution (buffer+substrate) was protected from light throughout the procedure by keeping it covered with aluminum foil. Using a multi-channel pipette, 100 μL Assay Solution (buffer+substrate) was added directly to each sample well in Plate 1, which was incubated for 30 min (plate was covered with aluminum foil). After 30 min incubation, the plate was read for total luminescence. Each well was read for 2 seconds in a plate luminometer. (Microplate reader Envision Microplate reader from Perkin Elmer). Precaution was taken to incubate plate exactly for 30 min prior to reading on the plate reader.
SREBPv1 Reporter cell line: HepG2—#32251. Growth Medium: MEM (Corning 10-010), 10% FBS, 1% GlutaMax (Invitrogen Catalog #35050061), […] (Invitrogen Catalog # A1113803) and 1% Penicillin-Streptomycin (Pen-Strep). Treatment Media: Phenol-free MEM (Invitrogen Catalog #51200-038) and 1% GlutaMax (Invitrogen Catalog #35050061). Luciferase Assay: LightSwitch Luciferase Assay Kit (Catalog #32032). LDH assay: Pierce LDH Cytotoxicity Assay Kit (Catalog # SD249616).
Background: Reporter assays use an easily measured gene product as a stand-in for the process of interest.

Data set [1] in a line: Stability in human liver microsomes. It counts as in vitro ADME. The following applies: 37° C., NADPH. The protocol:
Half-Life Human Microsomes:
(§1) Compounds were evaluated for stability in human liver microsomes. A 10 mM stock solution of the compound being evaluated was prepared in DMSO and diluted with water:acetonitrile (1:1) to a concentration of 1 mM. A working concentration of 100 μM was prepared by further dilution with water:acetonitrile (1:1). To make the preincubation mixture, 2.5 μL of the diluted compound was combined with 75 μL of human liver microsomes at 3.33 mg/mL, and 85 μL of 100 mM potassium phosphate buffer, and this mixture was pre-incubated for 10 min at 37° C. To make the 60 minute mixture without cofactor, 32.5 μL of the preincubation mixture was combined with 17.5 μL of 100 mM potassium phosphate buffer and incubated for 60 min at 37° C. To make the 0 min sample with cofactor (NADPH), 16.25 μL of the preincubation mixture was combined with 200 μL of acetonitrile containing internal standard and 8.75 μL of cofactor (NADPH). To make the incubation mixture, 62 μL of cofactor (2.85 mM) was combined with the remaining incubation mixture, and incubated for 60 min at 37° C. To prepare the sample mixture to be evaluated, 25 μL incubation mixture was combined with 200 μL of acetonitrile containing internal standard and vortexed for 5 min at 1200 rpm, then centrifuged for 10 min at 4000 rpm. The supernatant was diluted 2 fold with water and injected on LC-MS/MS. The sample mixture was evaluated by LC-MS/MS using 10 mM ammonium acetate with 0.100 FA as the aqueous mobile phase, and methanol as the organic mobile phase.
(Microsomes from liver hold many membrane-bound enzymes, among them those of drug oxidation.)

Data set [2] in a line: Stability in mouse liver microsomes. Type of data set: in vitro ADME. The protocol: as §1
Half-Life Mouse Microsomes:
Compounds were evaluated in mouse liver microsomes following a similar procedure as described above for human liver microsomes. A similar procedure could be used to evaluate compounds in rat liver microsomes.

We go through 16 molecules from patent US20220056018A1, “SREBP INHIBITORS COMPRISING A THIOPHENE CENTRAL RING” (Capulus Therapeutics, LLC, priority 2019, published 2022).

In general, EC50 refers to the concentration giving half of the maximal effect. `CC(C)OC(=O)Nc1ccc(-c2cc(-c3ccnc(C(C)(C)CO)c3)cs2)c(Cl)c1` [Compound I-8907, Isopropyl (3-chloro-4-(4-(2-(1-hydroxy-2-methylpropan-2-yl)pyridin-4-yl)thiophen-2-yl)phenyl)carbamate]: the EC50 in the data set on SREBP is 250 to 500 nM. Also, in data set [1], the “percent of compound remaining after 60 min in human liver microsomes” value (“percent of compound remaining” below) is “+++ (>60.1 = +++)”. Further, in data set [2], the “percent parent remaining after 60 min in liver microsomes” value (shortened to “percent parent remaining after 60 min”) is on record as “+++ (>60.1 = +++)”.
Take `CC(C)(CO)c1cc(-c2csc(-c3ccc(NC(=O)OC4CC4)cc3Cl)c2)ccn1` [Compound I-8918, Cyclopropyl (3-chloro-4-(4-(2-(1-hydroxy-2-methylpropan-2-yl)pyridin-4-yl)thiophen-2-yl)phenyl)carbamate]: in the data set with SREBP, the EC50 lay within 250 to 500 nM. The “percent of compound remaining” value in data set [1] was “+++ (>60.1 = +++)”. Besides, in data set [2], the “percent parent remaining after 60 min” value is on record as “++ (30.1-60 = ++)”.
For `CC(C)(CO)c1cc(-c2csc(-c3ccc(NC(=O)N4CCC(O)CC4)cc3Cl)c2)ccn1` [Compound I-8926, N-(3-chloro-4-(4-(2-(1-hydroxy-2-methylpropan-2-yl)pyridin-4-yl)thiophen-2-yl)phenyl)-4-hydroxypiperidine-1-carboxamide], in that order: below 249 nM, “++ (30.1-60 = ++)” and “+++ (>60.1 = +++)”.
The like results for `CC(C)(CO)c1cc(-c2csc(-c3ccc(N4CCOC4=O)cc3Cl)c2)ccn1` [Compound I-8939, 3-(3-chloro-4-(4-(2-(1-hydroxy-2-methylpropan-2-yl)pyridin-4-yl)thiophen-2-yl)phenyl)oxazolidin-2-one] were, in that order, 250 to 500 nM, “++ (30.1-60 = ++)” and “+++ (>60.1 = +++)”.
For `CC(C)(CO)c1cc(-c2csc(-c3ccc(NS(=O)(=O)C(F)(F)F)cc3Cl)c2)ccn1` [Compound I-8940, N-(3-chloro-4-(4-(2-(1-hydroxy-2-methylpropan-2-yl)pyridin-4-yl)thiophen-2-yl)phenyl)-1,1,1-trifluoromethanesulfonamide], in that order: below 249 nM, “+ (0-30 = +)” and “++ (30.1-60 = ++)”.
For the molecule `CC(C)NS(=O)(=O)Nc1ccc(-c2cc(-c3ccnc(C(C)(C)CO)c3)cs2)c(Cl)c1` [Compound I-8941], the EC50 with SREBP was below 249 nM. Further, the “percent of compound remaining” value in data set [1] was “++ (30.1-60 = ++)”. The “percent parent remaining after 60 min” value in data set [2] is “++ (30.1-60 = ++)”.
Take `CC(C)OC(=O)Nc1ccc(-c2cc(-c3ccnc(C4CC4)c3)cs2)c(Cl)c1` [Compound I-8966, Isopropyl (3-chloro-4-(4-(2-cyclopropylpyridin-4-yl)thiophen-2-yl)phenyl)carbamate]: the EC50 in the data set on SREBP is below 249 nM. In data set [1], the “percent of compound remaining” value is recorded as “+++ (>60.1 = +++)”. For the same molecule, in data set [2], the “percent parent remaining after 60 min” value is recorded as “+++ (>60.1 = +++)”.
`CC(C)OC(=O)Nc1ccc(-c2cc(-c3ccnc(C4(CO)CC4)c3)cs2)c(Cl)c1` [Compound I-8980, Isopropyl (3-chloro-4-(4-(2-(1-(hydroxymethyl)cyclopropyl)pyridin-4-yl)thiophen-2-yl)phenyl)carbamate]: in the data set with SREBP, the concentration giving a half-maximal response (EC50) is below 249 nM. In addition, in data set [1], the “percent of compound remaining” value is “+++ (>60.1 = +++)”. Moreover, the “percent parent remaining after 60 min” value in data set [2] was “+++ (>60.1 = +++)”.
Take `CS(=O)(=O)Nc1ccc(-c2cc(-c3ccnc(C4(CO)CC4)c3)cs2)c(Cl)c1` [Compound I-9002, N-(3-chloro-4-(4-(2-(1-(hydroxymethyl)cyclopropyl)pyridin-4-yl)thiophen-2-yl)phenyl)methanesulfonamide]: the half-maximal effective concentration (EC50) in the data set with SREBP is below 249 nM. In data set [1], the “percent of compound remaining” value is recorded as “+++ (>60.1 = +++)”. The “percent parent remaining after 60 min” value in data set [2] is “+++ (>60.1 = +++)”.
Consider `CN(c1ccc(-c2cc(-c3ccnc(C4CC4)c3)cs2)c(Cl)c1)S(C)(=O)=O` [Compound I-9037, N-(3-chloro-4-(4-(2-cyclopropylpyridin-4-yl)thiophen-2-yl)phenyl)-N-methylmethanesulfonamide], for which the EC50 in the data set with SREBP was below 249 nM. In addition, the “percent of compound remaining” value in data set [1] is reported as “+++ (>60.1 = +++)”. The “percent parent remaining after 60 min” value in data set [2] is “+++ (>60.1 = +++)”.
For the molecule `CN(C(=O)OC1CC1)c1ccc(-c2cc(-c3ccnc(C4CC4)c3)cs2)c(Cl)c1` [Compound I-9038, cyclopropyl (3-chloro-4-(4-(2-cyclopropylpyridin-4-yl)thiophen-2-yl)phenyl)(methyl)carbamate], in the data set on SREBP, the EC50 was below 249 nM. In addition, the “percent of compound remaining” value in data set [1] is “+++ (>60.1 = +++)”. The “percent parent remaining after 60 min” value in data set [2] was “+++ (>60.1 = +++)”.
For `CC(C)(C#N)c1cc(-c2csc(-c3ccc(NS(C)(=O)=O)cc3Cl)c2)ccn1` [Compound I-9039, N-(3-chloro-4-(4-(2-(2-cyanopropan-2-yl)pyridin-4-yl)thiophen-2-yl)phenyl)methanesulfonamide], the EC50 with SREBP is above 500 nM. Further, the “percent of compound remaining” value in data set [1] is on record as “+++ (>60.1 = +++)”. In addition, the “percent parent remaining after 60 min” value in data set [2] is “+++ (>60.1 = +++)”.
On to `CN(C(=O)OC1CC1)c1ccc(-c2cc(-c3ccnc(C4(CO)CC4)c3)cs2)c(Cl)c1` [Compound I-9042, Cyclopropyl (3-chloro-4-(4-(2-(1-(hydroxymethyl)cyclopropyl)pyridin-4-yl)thiophen-2-yl)phenyl)(methyl)carbamate], for which the 50% effective concentration (EC50) with SREBP is below 249 nM. In data set [1], the “percent of compound remaining” value is “++ (30.1-60 = ++)”. Besides, in data set [2], the “percent parent remaining after 60 min” value is “+++ (>60.1 = +++)”.
The like results for `CC(C)(CN)c1cc(-c2csc(-c3ccc(NS(C)(=O)=O)cc3Cl)c2)ccn1` [Compound I-9049, N-(4-(4-(2-(1-amino-2-methylpropan-2-yl)pyridin-4-yl)thiophen-2-yl)-3-chlorophenyl)methanesulfonamide] were, in that order, above 500 nM, “+++ (>60.1 = +++)” and “+++ (>60.1 = +++)”.
`CC(C)OC(=O)Nc1ccc(-c2cc(-c3ccnc(CC(C)(C)O)c3)cs2)c(Cl)c1` [Compound I-9051, isopropyl (3-chloro-4-(4-(2-(2-hydroxy-2-methylpropyl)pyridin-4-yl)thiophen-2-yl)phenyl)carbamate]: the EC50 in the data set on SREBP was above 500 nM. Besides, in data set [1], the “percent of compound remaining” value is on record as “+++ (>60.1 = +++)”. In data set [2], the “percent parent remaining after 60 min” value was “+++ (>60.1 = +++)”.
For the molecule `CN(c1ccc(-c2cc(-c3ccnc(C4(CO)CC4)c3)cs2)c(Cl)c1)S(C)(=O)=O` [Compound I-9056, N-(3-chloro-4-(4-(2-(1-(hydroxymethyl)cyclopropyl)pyridin-4-yl)thiophen-2-yl)phenyl)-N-methylmethanesulfonamide], the half-maximal effective concentration (EC50) in the data set with SREBP was below 249 nM. The “percent of compound remaining” value in data set [1] is on record as “++ (30.1-60 = ++)”. The “percent parent remaining after 60 min” value in data set [2] was “+++ (>60.1 = +++)”.
